This test relates to LmUGT73P1. Briefly: LC-QTOF-MS/MS rhamnosyltransferase assay, Michaelis-Menten plot. Format: biochemical, Lonicera macranthoides. To be noted: 10 mM UDP-Rha, 50 mM Tris-HCl pH 7.5, 37 °C, 20 min.

In general, Km refers to the concentration of substrate that gives half-maximal velocity. Take `CC1(C)CC[C@]2(C(=O)O)CC[C@]3(C)C(=CC[C@@H]4[C@@]5(C)CC[C@H](O[C@@H]6OC[C@H](O)[C@H](O)[C@H]6O)[C@@](C)(CO)[C@@H]5CC[C@]43C)[C@@H]2C1` [cauloside A]: the Km was 33 µM.

Source of the values: publication PMC10579715 (Plant Biotechnology Journal, 2023).
